Reference: patent US10857113B2, “Bezafibrate for the treatment of cancer” (Cipla Limited, priority 2016, dated 2020)
Read-outs that look alike come from different tables or passages of the source.

Assays:
[1] = system: A498 cells; assay: In vivo animal efficacy study, subcutaneous tumor fragment xenograft; design: species or system female athymic nude mice; settings: sunitinib 20 mg/kg, bezafibrate 150 mg/kg, p.o. q.d. × 21
Method: Healthy 10 female athymic nude mice were recruited for the donor cell inoculation. Animals were subcutaneously injected at flank region with 10 million A498 cells suspended in 200 μl of media and matrigel. Animals were monitored for solid tumor growth. […] Tumors were fragmented in to ˜30 mg size. […] [table] The tumor sizes were measured weekly twice from the date of tumor appearance till the end of the experiment. Tumor size was measured by digital vernier caliper (MITUTOYO) by measuring length (L=longest axis) and width (W=shortest axis). Tumor Volume (V) was calculated using formula: […] Mean tumor volume and % tumor growth inhibition (% TGI) were then calculated (SEM=standard error of mean).

[2] = system: human tumor cell models for RCC; assay: In vitro 3D clonogenic assay, all tumor models; type: cell-based; settings: 3D model, geometric mean over 10 tumor models
Method: (§1) Cell lines were routinely passaged one or twice weekly. All cells were grown at 37° C. in a humidified atmosphere with 5% CO2 in RPMI 1640 medium (Biochrom) supplemented with 10% (v/v) fetal calf serum and 0.1 mg/mL gentamicin. The percentage of viable cells was determined in a Neubauer-hemocytometer using trypan blue exclusion.
Tumor xenografts (patient-derived, as well as cell line-derived xenografts) were passaged as subcutaneous xenografts in NMRI nu/nu mice. At a tumor volume of 400-1,000 mm^3 tumor-bearing mice were sacrificed and tumors were collected under sterile conditions without delay according to the relevant Oncotest SOPs and the relevant animal welfare guidelines published by the FELASA and the GV-SOLAS. Tumors were mechanically disaggregated and subsequently incubated with an enzyme cocktail consisting of collagenase type IV (41 U/mL), DNase I (125 U/mL), hyaluronidase type III (100 U/mL), and dispase II (1.0 U/mL) in RPMI 1640 medium (Life Technologies) at 37° C. for 60-120 minutes. […] The percentage of viable cells was determined in a Neubauer-hemocytometer using trypan blue exclusion. […]
The clonogenic assay was carried out in a 96 well plate format using ultra low attachment plates. […] Cultures were incubated at 37° C. and 7.5% CO2 in a humidified atmosphere for 8 to 13 days and monitored closely for colony growth using an inverted microscope. […]

[3] = background statement; cited from earlier work
[4] = system: RXF 1220L; assay: In vitro 3D clonogenic assay; type: cell-based; settings: Homo sapiens, 3D model, colony formation, 8 to 13 days continuous exposure
Method: as §1
(§2) Tumor xenografts (patient-derived, as well as cell line-derived xenografts) were passaged as subcutaneous xenografts in NMRI nu/nu mice. At a tumor volume of 400-1,000 mm^3 tumor-bearing mice were sacrificed and tumors were collected under sterile conditions without delay according to the relevant Oncotest SOPs and the relevant animal welfare guidelines published by the FELASA and the GV-SOLAS. Tumors were mechanically disaggregated and subsequently incubated with an enzyme cocktail consisting of collagenase type IV (41 U/mL), DNase I (125 U/mL), hyaluronidase type III (100 U/mL), and dispase II (1.0 U/mL) in RPMI 1640 medium (Life Technologies) at 37° C. for 60-120 minutes. Cells were passed through sieves of 100 μm and 40 μm mesh size (Cell Strainer, BD Falcon™), and washed with RPMI 1640 medium. The percentage of viable cells was determined in a Neubauer-hemocytometer using trypan blue exclusion. Aliquots of the cells were frozen down, and stored in liquid nitrogen. On each day of an experiment, a frozen aliquot of tumor cells was thawed and used for preparation of assay plates.
(§3) The clonogenic assay was carried out in a 96 well plate format using ultra low attachment plates. For each test, cells were prepared as described above and assay plates were prepared as follows: each test well contained a layer of semi-solid medium with tumor cells (50 and a second layer of medium supernatant with or without test compound (100 The cell layer consisted of 2.5·10^3 to 1·10^4 tumor cells per well, which were seeded in 50 μL/well cell culture medium (IMDM, supplemented with 20% (v/v) fetal calf serum, 0.01% (w/v) gentamicin, and 0.4% (w/v) agar). After 24 hours the test compounds were added after serial dilution in cell culture medium, and left on the cells for the duration of the experiment (continuous exposure, 100 μl drug overlay). Every plate included six untreated control wells and drug-treated groups in duplicate at 9 concentrations. Cultures were incubated at 37° C. and 7.5% CO2 in a humidified atmosphere for 8 to 13 days and monitored closely for colony growth using an inverted microscope. Within this period, ex vivo tumor growth led to the formation of colonies with a diameter of >50 μm. At the time of maximum colony formation, counts were performed with an automatic image analysis system (CellInsight NXT, Thermo Scientific). 48 hours prior to evaluation, vital colonies were stained with a sterile aqueous solution of 2-(4-iodophenyl)-3-(4-nitrophenyl)-5-phenyltetrazolium chloride (1 mg/ml, 100 μl/well).

[5] = system: ACHN; assay: In vitro 3D clonogenic assay; type: cell-based; settings: Homo sapiens, 3D model, colony formation, 8 to 13 days continuous exposure
Method: as §1, §2, §3

[6] = system: A-498; assay: In vitro 3D clonogenic assay; type: cell-based; settings: Homo sapiens, A498, 3D model, colony formation, 8 to 13 days continuous exposure
Method: as §1, §2, §3

[7] = system: SN12C; assay: In vitro 3D clonogenic assay; type: cell-based; settings: Homo sapiens, 3D model, colony formation, 8 to 13 days continuous exposure
Method: as §1, §2, §3

[8] = system: RXF 1183L; assay: In vitro 3D clonogenic assay; type: cell-based; settings: Homo sapiens, 3D model, colony formation, 8 to 13 days continuous exposure
Method: as §1, §2, §3

[9] = system: Caki-1; assay: In vitro 3D clonogenic assay; type: cell-based; settings: Homo sapiens, 3D model, colony formation, 8 to 13 days continuous exposure
Method: as §1, §2, §3

[10] = system: RXF 486L; assay: In vitro 3D clonogenic assay; type: cell-based; settings: Homo sapiens, 3D model, colony formation, 8 to 13 days continuous exposure
Method: as §1, §2, §3

[11] = system: RXF 1781L; assay: In vitro 3D clonogenic assay; type: cell-based; settings: Homo sapiens, 3D model, colony formation, 8 to 13 days continuous exposure
Method: as §1, §2, §3

CC(C)(Oc1ccc(CCNC(=O)c2ccc(Cl)cc2)cc1)C(=O)O [Bezafibrate]
Tumor Growth Inhibition ([1]; Day 1): 0.44% | Tumor Volume, Mean ([1]; Day 1): 146.92 mm^3 | Tumor Volume, Mean ([1]; Day 6): 198.50 mm^3 | Tumor Growth Inhibition ([1]; Day 9): 21.70% | Tumor Volume, Mean ([1]; Day 9): 363.14 mm^3 | Tumor Growth Inhibition ([1]; Day 13): 24.92% | Tumor Volume, Mean ([1]; Day 13): 463.30 mm^3 | Tumor Growth Inhibition ([1]; Day 16): 26.18% | Tumor Volume, Mean ([1]; Day 16): 709.65 mm^3 | Tumor Growth Inhibition ([1]; Day 20): 31.59% | Tumor Volume, Mean ([1]; Day 20): 875.99 mm^3 | Anti-tumor efficacy / effect in inhibiting tumor growth (in words) [1]: shows anti-tumor efficacy | IC50 ([2]; read-out: Geometric mean absolute IC50): 945 µM | IC50 ([2]; read-out: Geometric mean relative IC50): 985 µM | Absorption following oral administration [3]: well absorbed | IC50 ([4]; read-out: Absolute IC50): 1160 µM | IC50 ([4]; read-out: Relative IC50): 1230 µM | IC50 ([5]; read-out: Absolute IC50): 1010 µM | IC50 ([5]; read-out: Relative IC50): 1060 µM | IC50 ([6]; read-out: Absolute IC50): 764 µM | IC50 ([6]; read-out: Relative IC50): 773 µM | IC50 ([7]; read-out: Absolute IC50): 463 µM | IC50 ([7]; read-out: Relative IC50): 463 µM | IC50 ([8]; read-out: Absolute IC50): 609 µM | IC50 ([8]; read-out: Relative IC50): 712 µM | IC50 ([9]; read-out: Absolute IC50): 1290 µM | IC50 ([9]; read-out: Relative IC50): 1290 µM | IC50 ([10]; read-out: Absolute IC50): 993 µM | IC50 ([10]; read-out: Relative IC50): 962 µM | IC50 ([11]; read-out: Absolute IC50): 1030 µM | IC50 ([11]; read-out: Relative IC50): 1100 µM
